{
  "source": "patent US20240245703A1",
  "about": "“TOPICAL APPLICATION OF AGENTS TO REDUCE SUN SENSITIVITY AND IMPROVE TOPICAL PHOTODYNAMIC THERAPY” (Wright State University, priority 2021, published 2024)",
  "key": {"[1]": {"system": "UVB-induced MVP release", "assay": "MVP release in skin and plasma of wild-type and XPA KO mice after UVB or topical agonists", "format": "in vivo", "settings": "WT and XPA KO mice, 5 kJ/m^2 UVB, 500 μM imipramine topical immediately post-UVB, 4 h", "from_the_text": "The enzyme aSMase is also known to generate MVP in response to many stressors such as UVB via activation of PAFR. Yet other stimuli such as in response to a phorbol ester (TPA) are independent of the PAFR. Therefore, administration of inhibitors of aSMase may block UVB-MVP release in XPA deficient model, as well as in other situations where MVP release is independent of the PAFR.\nGroups of 8-13 wild-type (C57BL/6) and XPA KO mice received no treatment (NT) or 1 KJ/m^2, 2.5 kJ/m^2, or 5 KJ/m^2 of UVB to their dorsal back skin. In some experiments, mice were treated with topical application of the PAFR agonist carbamoyl-PAF (CPAF; 50 μL of 100 μM) or the phorbol ester 12-O-tetradecanoylphorbol-13-acetate (TPA; 50 μL of 100 μM) in 90% ethanol: 10% DMSO vehicle. For the data in FIG. 2, triplicate skin biopsies were obtained and weighed four hours post-treatment, and MVP was measured. […] For the data in FIG. 3, plasma was obtained and MVP was measured four hours post-treatment. […] Data are the mean±S.E. fold change of MVP count. Groups were compared using One-Way ANOVA and Tukey's post-hoc test. Differences in samples were considered significant if the P value was less than 0.05. […]\nFor the data shown in FIG. 4, triplicate skin biopsies were obtained and MVP was measured. For the data shown in FIG. 5, plasma was obtained and MVP was measured. […]"}, "[2]": {"settings": "hairless mice, effect of propylene glycol; cited from earlier work"}, "[3]": {"system": "human skin explants", "assay": "UVB-induced MVP formation in human skin explants ex vivo", "format": "cell-based", "settings": "4 h", "from_the_text": "Four hours post-UVB triplicate skin biopsies were obtained and MVP quantified."}, "[4]": {"system": "PDT-induced immunosuppression", "assay": "contact hypersensitivity (CHS) to DNFB after PDT, ear thickness", "format": "in vivo, mice", "settings": "wild-type mice", "from_the_text": "Five days later the mice underwent sensitization with the neoantigen DNFB. To test for local immunosuppression, DNFB was applied to the PDT-treated area. To test for systemic immunosuppression, the DNFB was applied to back skin at least 2 cm away from the PDT-treated area. Nine days later the mice underwent elicitation reactions to DNFB by application to one ear, with vehicle applied to the other ear. One day later the ear thickness was obtained as a measure of CHS reaction and compared to pre-treatment and vehicle-treated values. Some mice were treated with intraperitoneal CPAF as a positive control for systemic immunosuppression.\nFor the data shown in FIG. 20, wild-type mice either were injected intraperitoneally with 250 ng CPAF as a positive control for immunosuppression, underwent PDT using 10 J/cm^2 blue light, or received no treatment (SHAM). […] Five days later the mice underwent sensitization with DNFB in PDT-treated (local immunosuppression) or non-PDT-treated skin (systemic immunosuppression). Nine days later the mice underwent elicitation reactions to ears with ear thickness measured at 24 hours. For the data shown in FIG. 21, wild type and aSMase-deficient (Smpd1−/−) mice underwent treatment with CPAF or PDT followed by DNFB sensitization/elicitation reactions as in FIG. 20. The data are mean±SD values. * Denotes statistically significant (P<0.05) changes from sham treatment values using two-way ANOVA."}, "[5]": {"system": "UVB-induced MVP release", "assay": "MVP release after localized UVB irradiation of volar forearm of human subjects", "format": "in vivo", "settings": "human photosensitive vs normal subjects, 1 KJ/m^2 UVB, 4% imipramine immediately after, biopsies 4 h", "from_the_text": "FIG. 22A compares normal subjects to subjects who have active photosensitivity disorders as denoted by positive screening. […] The individual data points are shown in FIG. 22A with the mean±SE of the groups for the UVB+vehicle for the normal and photosensitive subjects."}, "[6]": {"system": "HaCaT XPA KO", "assay": "UVB-induced MVP release in HaCaT XPA deficient cells", "format": "cell-based, human", "settings": "HaCaT XPA KO cell line", "description": "HaCaT cells and HaCaT XPA deficient cells received no treatment (NT) or 1 KJ/m^2, 2.5 KJ/m^2, or 5 KJ/m^2 UVB radiation. After 4 hours, the supernatant was removed and the MVP concentration was measured. The numbers of MVP shown in FIG. 1 were normalized to cell count and NT. Data in FIG. 1 show the mean+S.E. fold change of at least three experiments. Groups were compared using One-Way ANOVA. (P<0.01) was considered statistically significant. * denotes changes between NT and UVB. #denotes changes between HaCaT and HaCaT XPA deficient cells."}},
  "data": [
    {"smiles": "CN(C)CCCN1c2ccccc2CCc2ccccc21", "note": "[Imipramine]", "values": [
      {"measurement": "UVB-induced MVP in plasma", "setting": "[1]", "result": "blocked MVP accumulation"},
      {"measurement": "UVB-induced MVP in skin", "setting": "[1]", "result": "blocked MVP accumulation in skin"},
      {"measurement": "absorption with propylene glycol", "setting": "[2]", "result": "enhances absorption"},
      {"measurement": "UVB-induced MVP formation, pre-treatment", "setting": "[3]; 100 μL 500 μM applied 30 minutes before 2,500 J/m^2 UVB", "result": "blocks UVB-induced MVP formation"},
      {"measurement": "UVB-induced MVP formation, post-treatment", "setting": "[3]; 100 μL 500 μM applied immediately after 2,500 J/m^2 UVB", "result": "blocks UVB-induced MVP formation"},
      {"measurement": "CPAF-induced systemic immunosuppression (CHS to DNFB)", "setting": "[4]; 250 ng CPAF intraperitoneal, topical imipramine", "result": "did not affect the immunosuppressive effects of CPAF"},
      {"measurement": "PDT-induced local immunosuppression (CHS to DNFB)", "setting": "[4]; PDT 10 J/cm^2, 100 μL of 5% imipramine topical post-PDT, DNFB on PDT-treated skin", "result": "inhibited both local and systemic immunosuppression"},
      {"measurement": "PDT-induced systemic immunosuppression (CHS to DNFB)", "setting": "[4]; PDT 10 J/cm^2, 100 μL of 5% imipramine topical post-PDT, DNFB on non-PDT-treated skin", "result": "inhibited both local and systemic immunosuppression"},
      {"measurement": "UVB-induced MVP release in forearm skin", "setting": "[5]", "result": "blocks the increased MVP release selectively in the photosensitive subjects"},
      {"measurement": "increased MVP generation of XPA deficient keratinocytes", "setting": "[6]", "result": "blocked by imipramine"}
    ]}
  ]
}
